For assay [1], the target named is T1, ERα (Homo sapiens, UniProt P03372).
T1 construct: purchased Life Technologies
T1 sequence (P03372 1-595): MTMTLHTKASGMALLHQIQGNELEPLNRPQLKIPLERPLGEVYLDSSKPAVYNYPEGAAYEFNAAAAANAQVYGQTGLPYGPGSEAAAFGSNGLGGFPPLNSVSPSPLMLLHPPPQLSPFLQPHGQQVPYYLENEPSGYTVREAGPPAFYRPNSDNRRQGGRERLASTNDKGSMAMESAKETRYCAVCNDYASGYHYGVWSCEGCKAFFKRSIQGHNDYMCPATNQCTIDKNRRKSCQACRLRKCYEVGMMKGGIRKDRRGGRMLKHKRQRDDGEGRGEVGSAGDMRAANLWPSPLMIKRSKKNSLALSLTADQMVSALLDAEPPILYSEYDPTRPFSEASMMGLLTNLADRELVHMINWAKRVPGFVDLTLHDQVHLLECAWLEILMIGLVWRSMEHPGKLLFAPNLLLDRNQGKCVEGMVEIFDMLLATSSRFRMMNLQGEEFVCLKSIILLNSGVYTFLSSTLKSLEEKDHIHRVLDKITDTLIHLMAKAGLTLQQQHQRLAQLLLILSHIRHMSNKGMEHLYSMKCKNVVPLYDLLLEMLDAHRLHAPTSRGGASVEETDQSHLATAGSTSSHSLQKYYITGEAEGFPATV
Description: PolarScreen ER Alpha Competitor Assay (fluorescence polarization). The conditions noted are these: for inhibition at 10 µM / ER inhibition %: 10 μM. The assay is classed as binding. The procedure: The pIC50 values for the derivatives (Table 1, Supplementary Table S1) were measured with green PolarScreen™ ER Alpha Competitor Assay (Life Technologies, CA, The United States of America) kit, following the manufacturer protocol as previously described (Niinivehmas et al., [2016]). The final concentration of the compounds ranged from 0.0007 to 10 000 nM in the dilution series which were performed as duplicates. The molecules were combined with 25 nM ERα and 4.5 nM fluormone in the assay buffer and placed on black low volume 384-well assay plate with NBS surface (Corning, NY, The United States of America). After mixing the assay plate, it was incubated for 2 h in RT. The fluorescence polarization was measured using excitation wave length 485 and emission wave length 535 with bandwidths of 25/20 nm on a 2104 EnVision® Multilabel Plate Reader which had EnVision Workstation version 1.7 (PerkinElmer, MA, The United States of America).
Background: In fluorescence polarisation assays a small probe gives low polarisation when free and higher when bound to something large.

Assay [2] concerns the target T2, recombinant human HSD1 (Homo sapiens, UniProt P14061).
T2 construct: made in house; host or cells: Sf9 insect cells
T2 sequence (P14061 1-328): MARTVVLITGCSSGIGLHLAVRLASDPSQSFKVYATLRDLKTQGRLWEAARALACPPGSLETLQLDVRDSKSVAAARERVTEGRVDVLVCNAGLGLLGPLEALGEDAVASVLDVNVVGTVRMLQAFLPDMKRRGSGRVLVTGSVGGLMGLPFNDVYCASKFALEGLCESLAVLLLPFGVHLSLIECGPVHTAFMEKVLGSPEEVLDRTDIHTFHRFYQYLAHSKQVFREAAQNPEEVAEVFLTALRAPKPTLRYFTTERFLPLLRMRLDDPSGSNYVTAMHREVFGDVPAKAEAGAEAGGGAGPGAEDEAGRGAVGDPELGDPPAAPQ
Description: HSD1 inhibition by HPLC with tritium labeled estrone/estradiol. The assay is classed as biochemical. The conditions noted are these: 1 μM.

The term inhibition denotes the drop in the measured response relative to a control, in per cent. For the molecule `COc1cccc(-c2cc3ccccc3oc2=O)c1` [derivative 11, 3-(3-methoxyphenyl)-2H-chromen-2-one], the inhibition at 10 µM in assay [1] is 0.29%. In addition, the inhibition at 1 µM in assay [2] was found to be 4%.

Consider `O=c1oc2ccc(O)cc2cc1-c1ccc(O)cc1` [derivative 48], for which, in assay [1], the “ER activity (in words)” value is reported as “prominent” and the ER inhibition % came to 98.41%. The HSD1 inhibition % in assay [2] came out at 83.90%.

As for `O=c1oc2ccccc2cc1-c1cccc(O)c1` [derivative 31], the ER inhibition % in assay [1] is 0.00%. Besides, the HSD1 inhibition % in assay [2] is reported as 56.00%.

Molecule `Cc1ccc2oc(=O)c(-c3ccc(C(F)(F)F)cc3)cc2c1` [derivative 5, 6-methyl-3-(4-(trifluoromethyl)phenyl)-2H-chromen-2-one] came in with an inhibition at 10 µM in assay [1] of 1.08%. The inhibition at 1 µM in assay [2] stood at 0%.

Regarding `COc1ccc2oc(=O)c(-c3ccc(O)c(F)c3)cc2c1` [derivative 22, 3-(3-fluoro-4-hydroxyphenyl)-6-methoxy-2H-chromen-2-one], in assay [1], the “ER activity (in words)” value is “prominent” and 10 µM produced 55.4% inhibition. In addition, in assay [2], the inhibition at 1 µM was 54%.

Consider `COc1cccc(-c2cc3ccc(OC)cc3oc2=O)c1` [derivative 25], for which the ER inhibition % in assay [1] was found to be 0.00%. Also, the HSD1 inhibition % in assay [2] came out at 3.50%.

`COc1cccc(-c2cc3cc(OC)ccc3oc2=O)c1` [derivative 8, 6-methoxy-3-(3-methoxyphenyl)-2H-chromen-2-one] came in with an inhibition at 10 µM in assay [1] of 0%. Besides, the inhibition at 1 µM in assay [2] was found to be 0%.

On to `COc1ccc(-c2cc3cccc(O)c3oc2=O)cc1` [derivative 33], for which, in assay [1], the ER inhibition % was 0.00%. Further, in assay [2], the HSD1 inhibition % is given as 76.70%.

`COc1ccc(-c2cc3ccccc3oc2=O)cc1` [derivative 36]: in assay [1], the ER inhibition % came out at 0.00%. Further, the HSD1 inhibition % in assay [2] was determined as 3.80%.

Consider `O=c1oc2cc(O)ccc2cc1-c1ccccc1` [derivative 41], for which, in assay [1], the “ER activity (in words)” value is recorded as “prominent” and the ER inhibition % is reported as 101.40%.

The molecule `COc1ccc2oc(=O)c(-c3ccc(F)cc3)cc2c1` [derivative 21, 3-(4-fluorophenyl)-6-methoxy-2H-chromen-2-one] gave an inhibition at 10 µM in assay [1] of 0%. Also, the inhibition at 1 µM in assay [2] is 0%.

With `COc1ccc2cc(-c3ccc(O)c(F)c3)c(=O)oc2c1` [derivative 20, 3-(3-fluoro-4-hydroxyphenyl)-7-methoxy-2H-chromen-2-one], in assay [1], the “ER activity (in words)” value is recorded as “prominent” and the inhibition at 10 µM turned out to be 86.1%. Besides, the inhibition at 1 µM in assay [2] turned out to be 46%.

For `COc1ccc2cc(-c3cc(F)c(F)cc3F)c(=O)oc2c1` [derivative 16, 7-methoxy-3-(2,4,5-trifluorophenyl)-2H-chromen-2-one], the inhibition at 10 µM in assay [1] came to 8.8%. For the same molecule, in assay [2], the inhibition at 1 µM turned out to be 33%.

Regarding `COc1ccc2oc(=O)c(-c3ccc(N(C)C)cc3)cc2c1` [derivative 18, 3-(4-(dimethylamino)phenyl)-6-methoxy-2H-chromen-2-one], in assay [1], 10 µM produced 0% inhibition. Besides, in assay [2], the inhibition at 1 µM came out at 1%.

`COc1ccc2oc(=O)c(-c3cc(F)c(F)cc3F)cc2c1` [derivative 15, 6-methoxy-3-(2,4,5-trifluorophenyl)-2H-chromen-2-one] displayed an inhibition at 10 µM in assay [1] of 0%. Also, in assay [2], the inhibition at 1 µM is 12%.

In assay [1], `O=c1oc2ccc(O)cc2cc1-c1ccc(F)cc1` [derivative 24, 3-(4-fluorophenyl)-6-hydroxy-2H-chromen-2-one] showed an inhibition at 10 µM of 0%. Further, the inhibition at 1 µM in assay [2] was 20%.

As to `CC(=O)Oc1ccc2cc(-c3ccc(F)cc3)c(=O)oc2c1` [derivative 28], in assay [1], the “ER activity (in words)” value is given as “prominent” and the ER inhibition % amounted to 57.12%. The HSD1 inhibition % in assay [2] amounted to 0.30%.

On to `COc1ccc(-c2cc3ccc(O)cc3oc2=O)cc1` [derivative 12, 7-hydroxy-3-(4-methoxyphenyl)-2H-chromen-2-one], for which, in assay [1], the “ER activity (in words)” value was “prominent” and at 10 µM the inhibition was 91.3%. For the same molecule, the inhibition at 1 µM in assay [2] was determined as 3%.

As to `Cc1ccc2oc(=O)c(-c3ccc(F)cc3)cc2c1` [derivative 23, 3-(4-fluorophenyl)-6-methyl-2H-chromen-2-one], in assay [1], at 10 µM the inhibition was 0%. In assay [2], the HSD1 inhibition % stood at 11% and the inhibition at 1 µM lay within 12 to 33%.

As to `O=c1oc2cc(O)ccc2cc1-c1ccc(F)cc1` [derivative 39], in assay [1], the “ER activity (in words)” value is listed as “prominent” and the ER inhibition % is 100.63%. Further, the HSD1 inhibition % in assay [2] came to 0.00%.

Consider `O=c1oc2ccc(O)cc2cc1-c1cccc(O)c1` [derivative 38], for which, in assay [1], the ER inhibition % came out at 18.53%. Also, the HSD1 inhibition % in assay [2] was determined as 49.10%.

With `O=c1oc2cc(O)ccc2cc1-c1ccc(O)cc1` [derivative 30], in assay [1], the “ER activity (in words)” value is recorded as “prominent” and the ER inhibition % was determined as 58.53%. In addition, the HSD1 inhibition % in assay [2] is 48.20%.

Regarding `O=c1oc2ccccc2cc1-c1ccc(O)cc1` [derivative 29], in assay [1], the “ER activity (in words)” value was “prominent” and the ER inhibition % was 74.22%. Besides, the HSD1 inhibition % in assay [2] came to 5.40%.

On to `COc1ccc2oc(=O)c(-c3ccc(Oc4ccc(F)cc4)cc3)cc2c1` [derivative 46], for which the ER inhibition % in assay [1] came to 0.00%. Besides, the HSD1 inhibition % in assay [2] turned out to be 0.00%.

On to `Cc1ccc(-c2cc3ccc(O)cc3oc2=O)cc1` [derivative 27], for which, in assay [1], the “ER activity (in words)” value is given as “prominent” and the ER inhibition % was found to be 70.96%. The HSD1 inhibition % in assay [2] is reported as 12.50%.

(Values after PMC5840146, “Structure-Activity Relationship Analysis of 3-Phenylcoumarin-Based Monoamine Oxidase B Inhibitors” (Frontiers in Chemistry, 2018).)
